Measured values from US11951214B2, “Capsule formulations” (CHEMOCENTRYX, INC., priority 2018, dated 2024).
Converted amounts (≈) assume the structure as drawn. Where two headings read alike, the source gives them in different places.

Test: Solubility of Compound 1 in alternative excipients/solvents (liquid formulations, cranberry juice dilution)
Assay type: physicochemical
Description: Liquid formulations of PEG400/EtOH and Compound 1 can be prepared using general methods for making liquid formulations known in the art. For example, Compound 1 was dissolved in EtOH with agitation and ambient temperature, then the desired amount of PEG400 was added to achieve the desired ratios.
The liquid formulations of the present example are prepared as described in Example 2. When additional excipients are included, they are added after dissolution of Compound 1 in ethanol.

SMILES: Cc1ccc(NC(=O)[C@H]2CCCN(C(=O)c3c(C)cccc3F)[C@H]2c2ccc(NC3CCCC3)cc2)cc1C(F)(F)F [Compound 1, (2R,3 S)-2-(4-(cyclopentylamino)phenyl)-1-(2-fluoro-6-methylbenzoyl)-N-(4-methyl-3-(trifluoromethyl)phenyl)piperidine-3-carboxamide]
- solubility (Captisol in water (40% w/v), aqueous with cosolvent or surfactant or cyclodextrin, thermodynamic from solid, Captisol in water (40% w/v), read-out: Solubility): 0.01 mg/mL (≈ 0.0172 mM)
- Additional Observations (Captisol in water (40% w/v), overnight): API undissolved overnight even with warming to 60°.
- solubility (Cavitron W7 HP5 in water (40% w/v)): 0.05 mg/mL (≈ 0.086 mM)
- Additional Observations (Cavitron W7 HP5 in water (40% w/v), overnight): API undissolved overnight even with warming to 60°.
- Additional Observations (PEG400/EtOH/Cremophor EL (50/45/5 v/v), prepared 20 mg/mL formulation): A translucent solution with floating fine particles.
- Additional Observations (PEG400/EtOH/Cremophor EL (70/25/5 v/v), prepared 20 mg/mL formulation): A translucent solution.
- solubility (PEG400/EtOH/Solutol HS 15 (50/40/10 v/v), organic solvent or mixture, thermodynamic from solid, PEG400/EtOH/Solutol HS 15 (50/40/10 v/v), visually, against 30 mg/mL control solution, read-out: Solubility): ~30 mg/mL (≈ 51.6 mM)
- Additional Observations (PEG400/EtOH/Solutol HS 15 (50/40/10 v/v), ~30 mg/mL, overnight): few API particles left overnight, did not attempt
- solubility (PEG400/EtOH/Solutol HS 15 (50/45/5 v/v), organic solvent or mixture, thermodynamic from solid, PEG400/EtOH/Solutol HS 15 (50/45/5 v/v), visually, against 30 mg/mL control solution, read-out: Solubility): ~30 mg/mL (≈ 51.6 mM)
- Additional Observations (PEG400/EtOH/Solutol HS 15 (50/45/5 v/v), ~30 mg/mL, overnight): API particles left overnight, did not attempt cranberry
- Additional Observations (PEG400/EtOH/Solutol HS 15 (70/20/10 v/v), 20.4 mg/mL, in cranberry juice): Slow to precipitate with addition to cranberry juice.
- solubility (PEG400/EtOH/Solutol HS 15 (70/20/10 v/v), organic solvent or mixture, PEG400/EtOH/Solutol HS 15 (70/20/10 v/v), read-out: Solubility): 20.4 mg/mL (≈ 35.1 mM)
- Additional Observations (PEG400/EtOH/Solutol HS 15 (70/25/5 v/v), 20.0 mg/mL, in cranberry juice): Precipitate forms in cranberry juice.
- solubility (PEG400/EtOH/Solutol HS 15 (70/25/5 v/v), organic solvent or mixture, PEG400/EtOH/Solutol HS 15 (70/25/5 v/v), read-out: Solubility): 20 mg/mL (≈ 34.4 mM)
- solubility (PEG400/EtOH/Transcutol P (50/40/10 v/v), organic solvent or mixture, PEG400/EtOH/Transcutol P (50/40/10 v/v), second listing, read-out: Solubility): 20.2 mg/mL (≈ 34.7 mM)
- solubility (PEG400/EtOH/Transcutol P (50/40/10 v/v), organic solvent or mixture, thermodynamic from solid, PEG400/EtOH/Transcutol P (50/40/10 v/v), visually, against 30 mg/mL control solution, read-out: Solubility): ~30 mg/mL (≈ 51.6 mM)
- Additional Observations (PEG400/EtOH/Transcutol P (50/40/10 v/v), ~30 mg/mL, overnight): few API particles left overnight, did not attempt
- solubility (PEG400/EtOH/Transcutol P (50/45/5 v/v), organic solvent or mixture, PEG400/EtOH/Transcutol P (50/45/5 v/v), second listing, read-out: Solubility): 19.9 mg/mL (≈ 34.2 mM)
- solubility (PEG400/EtOH/Transcutol P (50/45/5 v/v), organic solvent or mixture, PEG400/EtOH/Transcutol P (50/45/5 v/v), visually, against 30 mg/mL control solution, read-out: Solubility): ~30 mg/mL (≈ 51.6 mM)
- Additional Observations (PEG400/EtOH/Transcutol P (50/45/5 v/v), ~30 mg/mL, overnight): few API particles left overnight, did not attempt
- solubility (PEG400/Propylene Glycol (50/50 v/v), organic solvent or mixture, PEG400/Propylene Glycol (50/50 v/v), read-out: Solubility): 10.9 mg/mL (≈ 18.7 mM)
- Additional Observations (PEG400/Propylene Glycol (50/50 v/v), overnight, then addition of cranberry juice): Somewhat dissolved overnight, however, precipitation
- solubility in control vehicle (control solution of PEG400/EtOH (50/50% v/v) with 30 mg/mL): Compound 1 is not fully soluble in control vehicle. A few
